The values below are quoted from earlier work in US20220225651A1, “STEVIOL GLYCOSIDE AND FERULIC ACID FORMULATIONS FOR FOOD AND BEVERAGES” (Sweegen, Inc., priority 2021, published 2022).

For this data set the following is noted: sweetness relative to sucrose.
On to Rebaudioside C, for which the “times sweeter than sucrose” value is 40-60 times.

Take `C=C1C[C@@]23CC[C@H]4[C@@](C)(CCC[C@@]4(C)C(=O)O[C@@H]4O[C@H](CO)[C@@H](O)[C@H](O)[C@H]4O)[C@@H]2CC[C@]1(O[C@@H]1O[C@H](CO)[C@@H](O)[C@H](O)[C@H]1O[C@@H]1O[C@@H](C)[C@H](O)[C@@H](O)[C@H]1O)C3` [Dulcoside A]: the “times sweeter than sucrose” value was “about 30 times”.

For `C=C1C[C@@]23CC[C@H]4[C@@](C)(CCC[C@@]4(C)C(=O)O[C@@H]4O[C@H](CO)[C@@H](O)[C@H](O)[C@H]4O)[C@@H]2CC[C@]1(O[C@@H]1O[C@H](CO)[C@@H](O)[C@H](O)[C@H]1O[C@@H]1O[C@H](CO)[C@@H](O)[C@H](O)[C@H]1O)C3` [stevioside], the “times sweeter than sucrose” value is reported as 100-150 times.
